One data set has as its system MurA Cys115. Nature of the data set: MS/MS of tryptic digested MurA, covalent labelling. It counts as binding, E. coli. The settings on record: tryptic peptide amino acids 104–120. The procedure: The tryptic digestion method was adapted from our former publication.
Briefly, 50 μL of MurA (42 μM) and 10 μL 0.2% (w/v) RapiGest SF (Waters Corp., Milford, MA, USA) solution buffered with 50 mM ammonium bicarbonate (NH4HCO3) were mixed (pH = 7.8). 4.5 μL of 45 mM DTT (~200 nmol) in 100 mM NH4HCO3 was added and the mixture kept at 37.5 °C for 30 min. After cooling the sample to room temperature, 7.5 μL of 100 mM iodoacetamide (750 nmol) in 100 mM NH4HCO3 was added and the mixture placed in the dark at room temperature for 30 min. The reduced and alkylated protein was then digested by 10 μL (1 mg mL^−1) trypsin (the enzyme-to-protein ratio was 1:10) (Sigma, St Louis, MO, USA). The sample was incubated at 37 °C overnight. To degrade the surfactant, 7 μL of HCOOH (500 mM) solution was added to the digested […] sample to obtain the final 40 mM (pH ≈ 2) solution which was incubated at 37 °C for 45 min. For LC-MS analysis, the acid-treated sample was centrifuged for 5 min at 13,000 rpm.
A QTRAP 6500 triple quadruple—linear ion trap mass spectrometer, equipped with a Turbo V source in electrospray mode (AB Sciex Pte. Ltd., Framingham, MA, USA) and an Agilent 1100 Binary Pump HPLC system (Agilent Technologies, Waldbronn, Germany) equipped with an autosampler was used for LC-MS/MS analysis. […]

A further data set addresses T1, MurA (E. coli) (Escherichia coli, UniProt P0A749).
T1 construct: made in house; host or cells: E. coli
Briefly: MurA assay, colorimetric malachite green method. It counts as biochemical. Here is the method:
MurAEC protein was recombinant, expressed in E. coli. The inhibition of MurA was monitored with the colorimetric malachite green method in which orthophosphate generated during the reaction is measured. MurA enzyme (E. coli) was pre-incubated with the substrate UNAG and compound for 30 min at 37 °C. The reaction was started by the addition of the second substrate PEP, resulting in a mixture with a final volume of 50 μL. The mixtures contained: 50 mM Hepes, pH 7.8, 0.005% Triton X-114, 200 μM UNAG, 100 μM PEP, purified MurA (diluted in 50 mM Hepes, pH 7.8) and 500 μM of each tested compound dissolved in DMSO. All compounds were soluble in the assay mixtures containing 5% DMSO (v/v). After incubation for 15 min at 37 °C, the enzyme reaction was terminated by adding Biomol® reagent (100μL) and the absorbance was measured at 650 nm after 5 min. All of the experiments were run in duplicate. Remaining activities (RAs) were calculated with respect to similar assays without the tested compounds and with 5% DMSO. The IC50 values, the concentration of the compound at which the remaining activity was 50%, were determined by measuring the remaining activities at seven different compound concentrations. The data are expressed as means of duplicate determinations, and the standard deviations were within 10% of the given values. A time-dependent inhibition assay was also performed. The IC50 values were determined at 0, 15 and 30 min of pre-incubation.

A short description of data set [1]: GSH reactivity assay (HPLC-MS). It counts as physicochemical. The note with it: 250 μM fragment, 5 mM glutathione, PBS pH 7.4, 5% MeCN. The procedure:
(§1) The assay was adapted from our former publication.
(§2) For the glutathione assay, 500 μM solution of the fragment (PBS buffer pH 7.4, 10% MeCN, 250 μL) with 200 μM solution of indoprofen (Merck KGaA, Darmstadt, Germany) as internal standard was added to 10 mM glutathione (Merck KGaA, Darmstadt, Germany) solution (dissolved in PBS buffer, 250 μL) in a 1:1 ratio. The final concentration was 250 μM fragment, 100 μM indoprofen, 5 mM glutathione and 5% MeCN (500 μL). The final mixture was analyzed by HPLC-MS (Shimadzu LCMS-2020) after 0, 1, 2, 4, 20, 25, 48, 72 h time intervals. […] The AUC (area under the curve) values were determined via integration of HPLC spectra then corrected using the internal standard. […] The data are expressed as means of duplicate determinations, and the standard deviations were within 10% of the given values. […]
(§3) The reaction half-life for pseudo-first-order reactions is t1/2 = ln2/k, where k is the reaction rate. […] In our case, the corrected kdeg and keff (regarding blank and GSH-containing samples, respectively) can be calculated by linear regression of the data points of the kinetic measurements. The corrected kGSH is calculated by keff − kdeg, and finally, the half-life time is determined using the equation t1/2(GSH) = ln2/kGSH.

The nature of data set [2]: Aqueous stability assay in PBS buffer. It counts as physicochemical. The note with it: PBS buffer pH 7.4, room temperature; read-out: t1/2 aqueous degradation (converted). Here is the method: as §1, §2, §3

We go through one compound from paper PMC7692735, “Bromo-Cyclobutenaminones as New Covalent UDP-N-Acetylglucosamine Enolpyruvyl Transferase (MurA) Inhibitors” (Pharmaceuticals, 2020).

“Also recorded” adds a separate entry of the source.

As a reminder, the IC50 is the concentration that inhibits the measured activity by half. A lower IC50 goes with inhibition by little substance. Usually remaining activity stands for what remains of the control signal, in per cent.

T1 sequence (P0A749 whole entry): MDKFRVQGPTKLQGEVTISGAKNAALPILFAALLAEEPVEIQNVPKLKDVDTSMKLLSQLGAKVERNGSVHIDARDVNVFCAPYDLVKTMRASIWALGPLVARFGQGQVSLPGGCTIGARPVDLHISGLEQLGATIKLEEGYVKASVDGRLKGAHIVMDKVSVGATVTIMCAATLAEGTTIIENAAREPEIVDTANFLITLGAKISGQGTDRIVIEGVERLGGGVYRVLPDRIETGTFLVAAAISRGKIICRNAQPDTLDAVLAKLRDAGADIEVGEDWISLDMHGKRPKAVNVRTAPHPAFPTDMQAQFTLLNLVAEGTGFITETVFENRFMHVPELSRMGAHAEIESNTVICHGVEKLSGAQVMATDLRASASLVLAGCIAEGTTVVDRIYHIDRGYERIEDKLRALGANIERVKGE

As for `CN(C(=O)c1ccccc1)C1=C(Br)C(=O)C1(C)C` [17a, N-(2-bromo-4,4-dimethyl-3-oxocyclobut-1-en-1-yl)-N-methylbenzamide], the “Covalent labelling site on MurA by MS/MS” value in the data set with MurA Cys115 is reported as “labelled on Cys115; also recorded: labeling on Cys115”. This compound also gave an IC50 against MurA (E. coli) (IC50, 30 min preincubation) of 138 µM. Besides, the remaining activity at 500 µM at MurA (E. coli) (fragment 500 μM, 30 min preincubation at 37 °C, read-out: RA (remaining activity) at 500 µM) stood at 12 ± 3%. Further, the “kGSH rate constant of conjugation with GSH” value in data set [1] came out at 0.0128 M/min. Besides, in data set [2], the half-life at 250 μM was 36.5 h.
